From patent US5468727A, “Methods of normalizing metabolic parameters in diabetics” (Board of Regents, The University of Texas System, priority 1993, dated 1995)

How the values were obtained:
[1] = system: obese diabetic Zucker rats; assay: Gastric emptying by gamma scintigraphy with camostat, diabetic rats; type: in vivo; conditions: diabetic Zucker rats 10 wks old, 1% camostat in 30% glucose solution by gavage; without 38.4±18 min
Protocol: (§1) Eight male obese Zucker rats of a strain that becomes diabetic by 10 wks of age and 8 matched lean Zucker rats as controls were studied. After overnight fast, rats 10 wks old were fed by gavage a 30% glucose solution ([…] body weight) containing 150 μCi of ^99m Tc-SC. Each rat was tested with and without 1% camostat, a trypsin inhibitor known to stimulate CCK release, in the glucose solution. Gastric emptying was monitored by gamma scintigraphy at 10 min intervals. Fasting and 1 hr postprandial plasma glucose were determined.

[2] = system: lean Zucker rats; assay: Gastric emptying by gamma scintigraphy with camostat, lean rats; type: in vivo; conditions: lean Zucker rats 10 wks old, 1% camostat in 30% glucose solution by gavage; without 65.1±5.7 min
Protocol: as §1

[3] = system: obese diabetic Zucker rats; assay: Fasting and 1 hr postprandial plasma glucose with camostat, diabetic rats; type: in vivo; conditions: fasting to 1 hr postprandial, 1% camostat in 30% glucose solution, without Camostat 270-±18 mg/dl
Protocol: as §1

[4] = system: subjects with early NIDDM; assay: Gastric emptying study (gamma camera, 99mTc-SC glucose solution) with CCK-8 infusion; type: in vivo, human
Text: Seven subjects with early NIDDM (diagnosed for less than 2 years) underwent two separate gastric emptying studies. Subjects were five men and two women ranging in age from 33 to 49 and previously diagnosed as diabetic according to current WHO criteria using a 75 g glucose tolerance test (OGTT) with blood sampled fasting and at 2 hr. All patients had been on oral hypoglycemic medication which was discontinued the evening prior to the study. All studies were begun between 7-8 am following a 12 hour fast.
An 18 gauge angiocatheter was placed in one antecubital fossa for blood drawing while another 18 gauge angiocatheter was placed in the other antecubital fossa for a 0.9% (normal saline) infusion ([…]). Gastric emptying studies utilizing a gamma camera (Scintronix USA, Inc., Woburn Mass.) were performed with a modified 0.62M (50 g glucose in 450 ml water) glucose solution. This solution has been used previously in gastric emptying studies (Schwartz, et al., 1990). […]
The subjects were then seated at a 90 degree angle in front of a gamma camera. […] Counts in the stomach region of interest were calculated in each 60 second image. After correcting for radioactive decay, the count rates were converted to a percentage of the maximum count rate recorded. […]

[5] = system: subjects with early NIDDM; assay: Plasma glucose after glucose solution with CCK-8 infusion; type: in vivo, human; conditions: iv CCK-8 infusion
Protocol: (§2) Blood samples were drawn from the indwelling 18 gauge angiocatheter in the antecubital fossa at 15 min intervals beginning just prior to ingestion of the glucose solution and ending at 120 min. Blood for glucose evaluation was collected in grey-top vacutainer tubes containing potassium oxalate and sodium fluoride. Blood for insulin and C-peptide was collected in red top tubes. Samples for hemoglobin A-1-C, gastric inhibitory polypeptide (GIP) and CCK were collected in lavender top tubes containing EDTA. All glass tubes were from Becton Dickinson Vacutainer Systems, Rutherford, N.J. Glucose analysis were performed on a Paramax instrument (Baxter Healthcare Corp., Irvine, Calif.). Hemoglobin A1C was performed by the micro column test (Bio-Rad, Hercules, Calif. 94547).
(§3) The second study was performed 3 days later. Subjects drank the glucose solution and a gastric emptying study was performed with simultaneous infusion of CCK (Kinevac™, Squibb Diagnostics Princeton, N.J. 08543) at 48 pM/kg/hr.
Infusions of the saline solution for the first test and the CCK solution for the second test were begun 10 min prior to ingestion of the glucose solution.

[6] = system: subjects with early NIDDM; assay: Plasma GIP by radioimmunoassay with CCK-8 infusion; type: in vivo, human; conditions: iv CCK-8 infusion; without CCK-8 420.4 pg/ml; P=0.0032
Protocol: as §2
(§4) The C-peptide assay was performed by Smith Kline Bioscience Laboratories, Van Nuys, Calif. by radioimmunoassay (Diagnostic Products, Los Angeles, Calif. 90045). The assay for insulin was performed by Smith Kline Bioscience Laboratory, St. Louis, Mo. by radioimmunoassay (Pharmacia Diagnostics, Fairfield, N.J. 07004). Assays for GIP and CCK were performed by radioimmunoassay by the Gastroenterology Unit at Mayo Clinic (Rochester, Minn. 55905) using in-house kits.
(§5) The second study was performed 3 days later. […]

[7] = system: subjects with early NIDDM; assay: Serum insulin by radioimmunoassay with CCK-8 infusion; type: in vivo, human; conditions: iv CCK-8 infusion
Protocol: as §2, §4, §5

[8] = Plasma CCK by radioimmunoassay with CCK-8 infusion; type: in vivo, human; conditions: during iv CCK-8 infusion; without CCK-8 20.8 pmol/L; P=0.0247
Protocol: as §2, §4, §5

[9] = system: subjects with early NIDDM; assay: Adverse effects during CCK-8 infusion; type: in vivo, human; conditions: iv CCK-8 infusion, 2 hr
Protocol: as §3
None of the subjects reported any nausea or abdominal distress during the CCK-8 infusions.

Structure (SMILES)	gastric half-emptying time [1]	gastric half-emptying time [2]	incremental increase in plasma glucose [3]	gastric half-emptying time ([4]; average, 7 early NIDDM subjects, iv CCK infusion 48 pM/kg/hr, 50 g glucose in 450 ml, without CCK-8 40.9 min, P=0.0042)	average area under the gastric emptying curve during the 2-hr period, relative to the same patients not receiving CCK-8 ([4]; iv CCK-8 infusion, early NIDDM subjects, 2 hr)	average glucose excursion value during the 2-hr period, relative to saline infusion ([5]; 2 hr)	average glucose excursion value during the 2-hr period ([5]; saline 5.6 mmol/liter, P=0.0550)	average glucose concentration during the 2-hr period following the glucose meal ([5]; saline infusion 17.1, P=0.0073)	average GIP excursion over the 2 hr period [6]	average insulin concentration over the 2 hr period, relative to saline infusion ([7]; not statistically significant)	average insulin concentration over the 2 hr period ([7]; without CCK-8 44.2 μU/ml, P=0.1480)	average plasma CCK-8 excursion [8]	adverse effects (nausea, abdominal distress) during infusion [9]
CN(C)C(=O)COC(=O)Cc1ccc(OC(=O)c2ccc(NC(=N)N)cc2)cc1 [Camostat]	141 ± 33 min	167 ± 25 min	160 ± 15 mg/dL										
CSCC[C@H](NC(=O)[C@H](Cc1ccc(OS(=O)(=O)O)cc1)NC(=O)[C@@H](N)CC(=O)O)C(=O)NCC(=O)N[C@@H](Cc1c[nH]c2ccccc12)C(=O)N[C@@H](CCSC)C(=O)N[C@@H](CC(=O)O)C(=O)N[C@@H](Cc1ccccc1)C(N)=O [CCK-8, Cholecystokinin-octapeptide]				94.2 min	175%	66%	3.7 mmol/L	14.0 mmol/L	266.4 pg/mL	68%	30.2 μU/ml	49.6 pmol/L	No adverse effects were reported or observed
